# Test system: mouse stroma in SK-MEL-28 human melanoma xenografts
# Assay: Gene expression changes in mouse tumour stroma (Illumina BeadChip)
# Assay type: in vivo, BALB/c Foxn1nu mouse
# Settings: 30 μg Compound 1 injected into the tumour
# Protocol: The SK-MEL-28 human melanoma cell line was injected subcutaneously (s.c) into 2 sites on the flanks of each BALB/c Foxn1nu mouse (2 million cells/site) and allowed to grow to approximately 7 mm diameter. Each tumour was then injected with 50 μl of 20% propylene glycol containing 30 μg Compound 1 or with 50 μl of 20% propylene glycol. At different times after injection a mouse was euthanased and the tumours harvested, the skin covering removed, and the intact tumours stored at −80° C.
# RNA was extracted from 30 mg of frozen tumour using the Qiagen RNeasy Plus Mini Kit, according to manufacturer's instructions, then quantitated with a NanoDrop instrument and integrity confirmed on denaturing agarose gels bearing a 1 kb DNA marker and stained with ethidium bromide.
# Approximately 500 ng of total unlabelled RNA was adjusted to a final volume of 11 μl with nuclease-free water. The RNA was incubated with 9 μl of the reverse transcriptase master mix (1 μl of T7 Oligo (dT) Primer, 2 μl of 10× first strand buffer, 4 μl of dNTP mix, 1 μl of RNase inhibitor and 1 μl of ArrayScript) at 42° C. for 2 h. This was followed by the second strand cDNA synthesis step which involved a further incubation at 16° C. for 2 hr with 80 μl of the second strand master mix (63 μL nuclease-free water, 10 μl 10× second strand buffer, 4 μl dNTP mix, 2 μl DNA polymerase and 1 μl RNase H). The cDNA was purified by filtering through a cDNA Filter Cartridge with 250 μl of cDNA binding buffer and washing with 500 μl of the wash buffer provided in the kit. Purified cDNA was eluted with 20 μl of 55° C. nuclease-free water. Each cDNA sample was incubated with 7.5 μl of the IVT master mix (2.5 μl of T7 10× reaction buffer, 2.5 μl of T7 enzyme mix and 2.5 μl biotin-NTP mix) at 37° C. for 16 h. The reaction was stopped with the addition of 75 μl of nuclease-free water to each cRNA sample. The biotinylated, amplified RNA was purified by filtering the cRNA samples through cRNA Filter Cartridges with 350 μL of cRNA binding buffer and 250 μl of 100% ethanol mixed together prior to loading onto the filters. The cRNA filter cartridges with attached RNA were then washed with 650 μl of wash buffer before eluting purified cRNA with 200 μl of 55° C. nuclease-free water.
# The cRNA samples were heated at 65° C. for 5 min and collected by pulse centrifugation. After heating at 65° C. for 5 min, approximately 750 ng of the cRNA sample was aliquoted into separate tubes to which were added ˜5 μl of RNase-free water and 10 μl of Hyb Mix. […]
# BeadChips were read by the iScan System, and transferred via GenomeStudio into GeneSpring GX v12.5 (Agilent Technologies, Santa Clara, Calif., USA). […] The entities were filtered based on the detection score calculated by GenomeStudio where p≤0.05 was considered significant.
compound,measurement,setting,value
"C/C=C(\C)C(=O)O[C@@H]1[C@@H](C)[C@@]2(O)[C@H]([C@@H]3C(C)(C)[C@]13OC(=O)[C@@H](C)CC)[C@@H]1O[C@]1(CO)[C@@H](O)[C@]1(O)C(=O)C(C)=C[C@H]12 [Compound 1, 12-tigloyl-13-(2-methylbutanoyl)-6,7-epoxy-4,5,9,12,13,20-hexahydroxy-1-tiglien-3-one]",Cxcl1 expression at the tumour site,,heavily upregulated
same,expression of host cytokines/chemokines important for recruitment/activation of immune cells at the tumour site,,upregulated
same,"host gene expression changes associated with a Th-1/M-like response: IFN-γ, TNF, IL-δ and IL-1β",,induction
same,TGF beta signalling (pathway analysis of gene expression),t=8 h,downregulation

# Source: US11213506B2, “Combination therapy for the treatment or prevention of tumours” (QBIOTICS PTY LTD, priority 2017, dated 2022)
